The values that follow come from ChEMBL document CHEMBL1909046, “DrugMatrix in vitro pharmacology data”.

Experiment [1] deals with 5-hydroxytryptamine receptor 2B (Homo sapiens, UniProt P41595). The format is cell membranes, CHO-K1, Membrane. The following applies: cho-k1.
Experiment [2] deals with T1, Neuropeptide Y receptor type 2 (Homo sapiens, UniProt P49146).
T1 sequence (P49146 whole entry): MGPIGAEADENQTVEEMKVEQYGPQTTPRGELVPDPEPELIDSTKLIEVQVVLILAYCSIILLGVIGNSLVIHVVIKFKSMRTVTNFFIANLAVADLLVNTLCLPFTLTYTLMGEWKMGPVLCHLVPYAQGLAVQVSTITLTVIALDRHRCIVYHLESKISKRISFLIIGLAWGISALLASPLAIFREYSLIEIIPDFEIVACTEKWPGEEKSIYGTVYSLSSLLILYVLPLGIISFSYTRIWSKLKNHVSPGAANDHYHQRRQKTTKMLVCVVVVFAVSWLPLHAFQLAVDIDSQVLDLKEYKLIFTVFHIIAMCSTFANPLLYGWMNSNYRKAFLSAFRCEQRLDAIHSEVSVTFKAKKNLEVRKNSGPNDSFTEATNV
The format is cell membranes, Membrane. The settings on record: kan-ts.

Experiment [3] is described as follows: DRUGMATRIX: Calcium Channel Type L, Phenylalkylamine radioligand binding (ligand: [3H] (-)-Desmethoxyverapamil (D-888)). The format is cell membranes, Rattus norvegicus, Wistar, Brain, Membrane. The settings on record: Not Active = under 50% inhibition at 10 µM.
A short description of experiment [4]: DRUGMATRIX: Purinergic P2X radioligand binding (ligand: [3H] alpha, beta-Methylene-ATP). The format is cell membranes, Oryctolagus cuniculus, New Zealand albino, Urinary bladder, Membrane. The settings on record: Not Active = under 50% inhibition at 10 µM.
Experiment [5] concerns the target Protein kinase C alpha type (Homo sapiens, UniProt P17252). The format is cell-based. The settings on record: sf9.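 Further: inhibition of PKCalpha kinase activity measured in an enzyme assay with histone as the phosphorylation substrate; in other assays of this panel Not Active means under 50% inhibition at 10 µM.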
The next experiment addresses T2, Progesterone receptor (Bos taurus, UniProt Q690N0).
T2 sequence (Q690N0 whole entry): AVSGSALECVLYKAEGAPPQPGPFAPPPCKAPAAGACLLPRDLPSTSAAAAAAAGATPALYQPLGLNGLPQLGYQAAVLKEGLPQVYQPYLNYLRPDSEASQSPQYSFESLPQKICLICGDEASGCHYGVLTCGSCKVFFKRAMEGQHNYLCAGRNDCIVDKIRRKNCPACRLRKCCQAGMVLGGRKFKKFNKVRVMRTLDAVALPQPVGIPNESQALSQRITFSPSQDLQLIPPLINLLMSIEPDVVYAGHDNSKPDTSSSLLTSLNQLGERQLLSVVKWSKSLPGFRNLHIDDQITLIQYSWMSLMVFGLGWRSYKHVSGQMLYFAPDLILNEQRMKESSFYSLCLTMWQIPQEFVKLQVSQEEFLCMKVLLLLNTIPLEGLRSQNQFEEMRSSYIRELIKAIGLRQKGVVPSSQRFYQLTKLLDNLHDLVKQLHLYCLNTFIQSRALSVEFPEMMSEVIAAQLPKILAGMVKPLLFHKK
Description: DRUGMATRIX: Progesterone radioligand binding (ligand: [3H] R-5020). The format is tissue-based, Uterus. The following applies: Not Active = under 50% inhibition at 10 µM.

5-hydroxytryptamine receptor 2B, sequence (P41595 whole entry): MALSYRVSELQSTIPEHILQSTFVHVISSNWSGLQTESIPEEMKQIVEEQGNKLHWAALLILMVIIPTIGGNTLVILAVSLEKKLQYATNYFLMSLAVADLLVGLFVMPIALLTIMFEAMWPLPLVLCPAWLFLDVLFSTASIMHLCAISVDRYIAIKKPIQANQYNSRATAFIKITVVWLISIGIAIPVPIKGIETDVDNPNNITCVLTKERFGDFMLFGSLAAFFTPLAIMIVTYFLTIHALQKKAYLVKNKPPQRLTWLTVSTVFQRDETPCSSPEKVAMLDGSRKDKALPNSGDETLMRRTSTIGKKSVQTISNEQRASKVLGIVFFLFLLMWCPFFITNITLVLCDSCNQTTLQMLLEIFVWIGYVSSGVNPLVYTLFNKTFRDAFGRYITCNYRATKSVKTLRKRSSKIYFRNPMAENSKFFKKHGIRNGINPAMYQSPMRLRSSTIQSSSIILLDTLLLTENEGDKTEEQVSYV

As usually defined, the IC50 is the concentration that gives 50% inhibition. By Ki is commonly meant a measure of affinity in units of concentration, obtained from inhibition or displacement. Regarding `COc1ccccc1N`, the IC50 result (in experiment [1]; in experiment [2]; in experiment [3]; in experiment [4]; in experiment [5]; at Progesterone receptor) was “Not Active” throughout. The Ki result in experiment [3] and in experiment [4] was “Not Active” in each case.

With `Cc1c(O)cccc1C(=O)N[C@@H](CSc1ccccc1)[C@H](O)CN1C[C@H]2CCCC[C@H]2C[C@H]1C(=O)NC(C)(C)C`, the IC50 entry was “Not Active” in experiment [1]; “Not Active” in experiment [2]; 18.4 µM in experiment [3] (read-out: IC50); “Not Active” in experiment [4]; “Not Active” in experiment [5]; 44.5 µM on Progesterone receptor (read-out: IC50). Besides, the Ki in experiment [3] (read-out: Ki) is 17.9 µM; in experiment [4], “Not Active”; on Progesterone receptor (read-out: Ki), 5.8 µM.

For `NC12CC3CC(CC(C3)C1)C2` [AMANTADINE], the half-maximal inhibitory concentration (IC50) entry (in experiment [1]; in experiment [2]; in experiment [3]; in experiment [4]; in experiment [5]; on Progesterone receptor) was “Not Active” throughout. The Ki entry in experiment [3] and in experiment [4] was “Not Active” throughout.

For the molecule `CC(C)c1c(C(=O)Nc2ccccc2)c(-c2ccccc2)c(-c2ccc(F)cc2)n1CC[C@@H](O)C[C@@H](O)CC(=O)O` [ATORVASTATIN], the IC50 result (in experiment [1]; in experiment [2]; in experiment [3]; in experiment [4]; in experiment [5]; at Progesterone receptor) was “Not Active” each time. Besides, the Ki entry in experiment [3] and in experiment [4] was “Not Active” in each case.

As for `COc1cc(OC)c(C(=O)CCCN2CCCC2)c(OC)c1` [BUFLOMEDIL], the IC50 result (in experiment [1]; in experiment [2]; in experiment [3]; in experiment [4]; in experiment [5]; at Progesterone receptor) was “Not Active” in each case. For the same molecule, the Ki result in experiment [3] and in experiment [4] was “Not Active” in each case.

As for `Cn1c(=O)c2c(ncn2C)n(C)c1=O` [CAFFEINE], the IC50 result (in experiment [1]; in experiment [2]; in experiment [3]; in experiment [4]; in experiment [5]; at Progesterone receptor) was “Not Active” throughout. In addition, the Ki result in experiment [3] and in experiment [4] was “Not Active” in each case.

Take `CC(C)NCC(O)c1ccccc1Cl` (configuration not stated) [CLORPRENALINE]: the IC50 entry (in experiment [1]; in experiment [2]; in experiment [3]; in experiment [4]; in experiment [5]; on Progesterone receptor) was “Not Active” each time. The Ki entry in experiment [3] and in experiment [4] was “Not Active” each time.

As for `C[S+](C)[O-]` [DIMETHYL SULFOXIDE], the IC50 entry (in experiment [1]; in experiment [2]; in experiment [3]; in experiment [4]; in experiment [5]; on Progesterone receptor) was “Not Active” in each case. The inhibitory constant (Ki) result in experiment [3] and in experiment [4] was “Not Active” each time.

Regarding `CC(O)(P(=O)(O)O)P(=O)(O)O` [ETIDRONIC ACID], the IC50 entry in experiment [1], in experiment [2], in experiment [3], in experiment [4] and in experiment [5] was “Not Active” each time. For the same molecule, the inhibitory constant (Ki) entry in experiment [3] and in experiment [4] was “Not Active” each time.

Take `CCOC(=O)c1ncn2c1CN(C)C(=O)c1cc(F)ccc1-2` [FLUMAZENIL]: the IC50 entry (in experiment [1]; in experiment [2]; in experiment [3]; in experiment [4]; in experiment [5]; at Progesterone receptor) was “Not Active” in each case. In addition, the Ki entry in experiment [3] and in experiment [4] was “Not Active” each time.

In the case of `O=C(O)P(=O)(O)O` [FOSCARNET], the IC50 entry (in experiment [1]; in experiment [2]; in experiment [3]; in experiment [4]; in experiment [5]; on Progesterone receptor) was “Not Active” each time. The Ki entry in experiment [3] and in experiment [4] was “Not Active” in each case.

Take `O=c1c(-c2ccc(O)cc2)coc2cc(O)cc(O)c12` [GENISTEIN]: the IC50 entry (in experiment [1]; in experiment [2]; in experiment [3]; in experiment [4]; in experiment [5]; at Progesterone receptor) was “Not Active” throughout. The Ki result in experiment [3] and in experiment [4] was “Not Active” in each case.

`C[N+](C)(C)C[C@H](O)CC(=O)[O-]` [LEVOCARNITINE]: the concentration for half-maximal inhibition (IC50) entry (in experiment [1]; in experiment [2]; in experiment [3]; in experiment [4]; in experiment [5]; on Progesterone receptor) was “Not Active” throughout. The Ki entry in experiment [3] and in experiment [4] was “Not Active” in each case.

Take `C[C@H]1COc2c(N3CCN(C)CC3)c(F)cc3c(=O)c(C(=O)O)cn1c23.C[C@H]1COc2c(N3CCN(C)CC3)c(F)cc3c(=O)c(C(=O)O)cn1c23.O` [LEVOFLOXACIN]: the IC50 entry (in experiment [1]; in experiment [2]; in experiment [3]; in experiment [4]; in experiment [5]; at Progesterone receptor) was “Not Active” in each case. In addition, the Ki result in experiment [3] and in experiment [4] was “Not Active” each time.

As for `CCn1cc(C(=O)O)c(=O)c2cc(F)c(N3CCNC(C)C3)c(F)c21` (configuration not stated) [LOMEFLOXACIN], the half-inhibitory concentration (IC50) result (in experiment [1]; in experiment [2]; in experiment [3]; in experiment [4]; in experiment [5]; at Progesterone receptor) was “Not Active” in each case. Besides, the Ki result in experiment [3] and in experiment [4] was “Not Active” throughout.

In the case of `CN(C)C(=N)NC(=N)N` [METFORMIN], the IC50 entry (in experiment [1]; in experiment [2]; in experiment [3]; in experiment [4]; in experiment [5]; on Progesterone receptor) was “Not Active” in each case. Further, the Ki result in experiment [3] and in experiment [4] was “Not Active” throughout.

With `CN(C)C(=O)Oc1cccc([N+](C)(C)C)c1.[Br-]` [NEOSTIGMINE BROMIDE], the IC50 result (in experiment [1]; in experiment [2]; in experiment [3]; in experiment [4]; in experiment [5]; on Progesterone receptor) was “Not Active” each time. The Ki result in experiment [3] and in experiment [4] was “Not Active” each time.

Regarding `CN1C(=O)CN=C(c2ccccc2)c2cc([N+](=O)[O-])ccc21` [NIMETAZEPAM], the IC50 entry (in experiment [1]; in experiment [2]; in experiment [3]; in experiment [4]; in experiment [5]; at Progesterone receptor) was “Not Active” in each case. Further, the Ki result in experiment [3] and in experiment [4] was “Not Active” throughout.

For `COc1ccc2c(c1OC)C(=O)O[C@@H]2[C@H]1c2c(cc3c(c2OC)OCO3)CCN1C` [NOSCAPINE], the IC50 result (in experiment [1]; in experiment [2]; in experiment [3]; in experiment [4]; in experiment [5]; on Progesterone receptor) was “Not Active” in each case. Also, the Ki entry in experiment [3] and in experiment [4] was “Not Active” each time.
